These results are taken from patent publication US20170369892A1, “HORMONE DEGRADABLE CRISPR-BASED TRANSCRIPTION FACTORS” (University of Washington, priority 2016, published 2017).

“Also recorded” adds a separate entry of the source.

Test [1] deals with ADCTF (auxin receiver) strain, minimal CYC1 promoter driving EGFP. Description: Cytometry of ADCTF receiver yeast strains (GFP reporter) after auxin induction. The format is cell-based, Saccharomyces cerevisiae. The source says: Synthetic, scalable, auxin-modulated transcription factors are provided. To link an auxin sensor to diverse transcriptional responses and targets, auxin degradable CRISPR transcription factors (ADCTFs) with three modular domains were designed (see FIG. 1A). In some embodiments, a core component of the ADCTFs can be the CRISPR-based transcription factor described by Farzadfard, et al. (“Tunable and multifunctional eukaryotic transcription factors based on CRISPR/Cas,” ACS synthetic biology 2.10 (2013): 604-613), wherein a dCas9 protein functions as a programmable DNA binding module. The dCas9 was fused to a transcriptional effector domain, in this case the transcriptional activator VP64, and to an IAA degron. In the presence of an AFB, ADCTFs should generally be ubiquitinated and degraded when exposed to auxin. The ADCTFs were tested by targeting them to activate the expression of EGFP from a minimal CYC1 promoter and observing deactivation of fluorescence upon the addition of auxin. […] Auxin dependent regulation was independent of the promoter being regulated by the ADCTF (see FIG. 6B). The observed effect was also reversible.
(§1) All cytometry measurements were acquired with an ACCURI™ C6 cytometer with attached CSAMPLER™ apparatus using 488 nm and 640 nm excitation lasers and a 533 nm (FL-1: YFP/GFP) emission filter. For experiments involving steady-state ADC behavior (see FIGS. 6A-7B) cultures were grown overnight in SC media with 1 nM beta-estradiol for ADC expression induction. The next morning they were diluted down 1:100 and then grown up for 5 hours and then induced with varying auxin concentrations from stock solutions. These cultures were then grown overnight and fluorescence was measured the next day. For the replicates, untreated cultures from the previous day's experiments were used as overnights to begin the next day's cultures.
For time course experiments, cultures were grown overnight in SC media with 1 nM beta-estradiol for ADC expression induction. The next morning two sets of parallel cultures were set up by diluting down the overnights 1:100. These were then grown up for 5 hours and then induced with 30 μM auxin and reads were taken every 30 minutes for approximately seven hours. A final steady state reading was taken the next day.
Cytometry data were analyzed using custom R scripts and the FLOWCORE™ package by first gating for the yeast diploid population and then generating mean fluorescence values for every point. These datasets were then collectively fit using the LOESS fitting function in R and metrics and error were derived from these fits. For the recovery experiments, the same protocol was used except the overnight cultures were grown up in SC with 1 nM beta-estradiol and 30 μM auxin.

Test [2] concerns laboratory strains of yeast. As to conditions: grown in standard conditions; cited from earlier work.
Test [3] relates to UBQ1 promoter driving venus-luciferase reporter repressed by ADCTF. The test can be described thus: ADCTF-regulated venus-luciferase reporter in plants after auxin treatment. It counts as in vivo, Arabidopsis thaliana. The source says:
FIG. 12A is a schematic of the genetic circuit that was transformed into Arabidopsis thaliana to test the function of the hormone degradable CRISPR based transcription factor (HDCTF). […] These complex together and cause repression of the UBQ1 promoter, which is driving the expression of a venus-luciferase fusion reporter with a nuclear localization tag fused to it. Auxin can interact with the degron domain of the ADCTF (a version of the HDCTF) to degrade the transcription factor and relieve repression.
FIG. 12B is graph showing the normalized luciferase reporter activity over time for two plants, one of which has an ADCTF with a functional degron and the other which has a ADCTF with a stabilized degron. The orange bar indicates when the plants were exposed to either an auxin (solid line) or control (dashed line) treatment. The box plot summarizes the behavior of several plant lines with the functional or stabilized degron ADCTFs eighty minutes after treatment.

In test [4] the test system is EYFP-IAA17|AFB2 auxin reporting strain expressing iaaH. Description: Time-lapse cytometry of iaaH sender strain with EYFP-IAA17|AFB2 auxin reporter after IAM or auxin. It counts as cell-based, Saccharomyces cerevisiae.
Description: FIG. 3A illustrates an auxin sender strain design. The iaaH enzyme of Agrobacterium tumefaciens catalyzes the conversion of indole-3-acetamide (IAM) into auxin, inducing the degradation of proteins fused to an auxin degron. The iaaH enzyme (sender cells) was integrated into an auxin reporting strain (the EYFP-IAA17|AFB2 strain from Havens, et al. (2012) Plant Physiol. 160, 135-42) to test for internal auxin production.
Yeast can produce tunable levels of auxin via expression of Iaah from Agrobacterium tumefaciens. To generate an auxin producing strain, half of the IAM pathway from Agrobacterium tumefaciens was integrated into yeast (see Zhao, Y. (2010) Annu. Rev. Plant Biol. 61, 49-64). The IAM pathway is a two-step enzymatic process that converts tryptophan to IAM and then into auxin. The first step is via tryptophan-2-monooxygenase (iaaM, not examined here). The second step is catalyzed by indole-3-acetamide hydrolase (iaaH). To test whether yeast could produce auxin from IAM using only the second enzyme, the iaaH gene from the Agrobacterium tumefaciens Ti plasmid (see Pacurar, D. I., et al. (2011) Physiol. Mol. Plant Pathol. 76, 76-81) was integrated into an auxin reporting yeast strain (see FIG. 3A) containing a IAA-YFP fusion protein. After adding IAM, reporter degradation rates were measured via time-lapse cytometry (see FIG. 3B).
as §1

For test [5], the system named is receiver cells (ADCTF, gRNA targeting minimal CYC1 promoter driving EGFP). Description: Coculture of sender and receiver strains treated with IAM. The format is cell-based, Saccharomyces cerevisiae. The settings on record: saturating IAM. An excerpt: FIG. 5A illustrates coculture of sender and receiver strains. Sender cells convert IAM into auxin that then diffuses out of sender cells and into receiver cells where it causes the degradation of ADCTFs, producing a drop in fluorescence.
Sender cells can produce a tunable auxin response in receiver cells. Sender and receiver cells were cocultured in different ratios to measure the effect of sender cell concentration on auxin signal production. Senders constitutively express iaaH and the receivers expressed an activating ADCTF and a gRNA targeting a minimal CYC1 promoter driving EGFP (see FIG. 5A). […] Three different receiver strains with a range of responses to auxin were tested with the sender strain. […] In addition, a 10% fraction of sender cells is sufficient for a significant change in fluorescence in receiver cells at steady state and a 50% fraction produces a nearly saturating signal (see FIGS. 5C and 5D).

Turning to auxin, the “release of regulation with minimal pGAL promoter driving GFP” value in test [1] (30 μM auxin, degron 17 with AFB2 or TIR1-DM, compared with pCYC1 target) is given as “comparable release of regulation”. The “GFP fluorescence level following addition of auxin” value in test [1] (time-lapse cytometry, ADCTF strain expressing gRNA) is on record as “dropped to basal levels; also recorded: dropped to levels at or below the control (no gRNA) levels”. The “reporter expression after auxin was removed” value in test [1] (wash-out after steady state) is on record as “returned to its activated state”. In test [2], the “effects on laboratory strains of yeast” value was “does not have measurable effects”. In test [3] (ADCTF with functional degron, eighty minutes after treatment), the “normalized luciferase reporter activity” value was “significant increase in reporter expression”. Moreover, the “reporter expression in root tip (confocal microscopy)” value in test [3] (root tip) is recorded as “significant increase in reporter expression”.

Turning to `NC(=O)Cc1c[nH]c2ccccc12` [IAM, indole-3-acetamide], the “delay between addition of IAM and production of auxin” value in test [4] is “no significant delay”. In test [4] (for a given molarity, compared with auxin), the “auxin-induced degradation rate (t1/2) of reporter” value is on record as “comparable to that of native auxin”. Moreover, the “fluorescence of sender cells following addition of IAM” value in test [4] (time-lapse cytometry) was “decreased to basal levels”. In addition, in test [4] (varying doses of IAM), the “steady state fluorescence of sender cells” value is “lower steady state fluorescence; also recorded: converge to those of auxin”. In addition, the “fluorescence / gene activation in receiver strain” value in test [5] was “dropped in fluorescence over time; also recorded: comparable to direct addition of auxin”.

B1: tir1-D/M: mutant of TIR1 F-box protein (protein, UniProt Q570C0 1-594, looked up, variant D170E M473L)
Protein TRANSPORT INHIBITOR …: MQKRIALSFPEEVLEHVFSFIQLDKDRNSVSLVCKSWYEIERWCRRKVFIGNCYAVSPATVIRRFPKVRSVELKGKPHFADFNLVPDGWGGYVYPWIEAMSSSYTWLEEIRLKRMVVTDDCLELIAKSFKNFKVLVLSSCEGFSTDGLAAIAATCRNLKELDLRESDVDEVSGHWLSHFPDTYTSLVSLNISCLASEVSFSALERLVTRCPNLKSLKLNRAVPLEKLATLLQRAPQLEELGTGGYTAEVRPDVYSGLSVALSGCKELRCLSGFWDAVPAYLPAVYSVCSRLTTLNLSYATVQSYDLVKLLCQCPKLQRLWVLDYIEDAGLEVLASTCKDLRELRVFPSEPFVMEPNVALTEQGLVSVSMGCPKLESVLYFCRQMTNAALITIARNRPNMTRFRLCIIEPKAPDYLTLEPLDIGFGAIVEHCKDLRRLSLSGLLTDKVFEYIGTYAKKMEMLSVAFAGDSDLGLHHVLSGCDSLRKLEIRDCPFGDKALLANASKLETMRSLWMSSCSVSFGACKLLGQKMPKLNVEVIDERGAPDSRPESCPVERVFIYRTVAGPRFDMPGFVWNMDQDSTMRFSRQIITTNGL
As to B1, in test [1] (30 μM auxin induction, ranking across library), the “degradation kinetics (time to 50% degradation)” value is “fastest overall”. For the same molecule, the “auxin sensitivity range conferred by F-box protein” value in test [1] (steady state, dose response twenty-four hours after induction) is reported as “narrowest”.
